The supplement of paper PMC10307832

What was measured:
Assay in all cases: relative viability (nuclei count vs DMSO), 5 days (fraction); higher = more cells survive
Seliciclib + Alpelisib = compound: CC[C@H](CO)Nc1nc(NCc2ccccc2)c2ncn(C(C)C)c2n1 [Seliciclib] + Cc1nc(NC(=O)N2CCC[C@H]2C(N)=O)sc1-c1ccnc(C(C)(C)C(F)(F)F)c1 [Alpelisib] (partner 2 µM)
Summary of the method: (§1)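 Each reported value is a median over duplicate plates. It expresses relative viability: treated-well nuclei count divided by vehicle-well nuclei count. Lung cancer cell lines in 1536-well plates were dosed by pin tool a day after seeding, alone with one drug or with a fixed anchor-drug dose plus five library-drug doses (not always all listed) in √10 steps, and nuclei were counted after 5 days.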

Seliciclib + OSI-027 = compound: CC[C@H](CO)Nc1nc(NCc2ccccc2)c2ncn(C(C)C)c2n1 [Seliciclib] + COc1cccc2cc(-c3nc([C@H]4CC[C@H](C(=O)O)CC4)n4ncnc(N)c34)[nH]c12 [OSI-027] (partner 0.5 µM)
Summary of the method: as §1

Seliciclib + Lapatinib = compound: CC[C@H](CO)Nc1nc(NCc2ccccc2)c2ncn(C(C)C)c2n1 [Seliciclib] + CS(=O)(=O)CCNCc1ccc(-c2ccc3ncnc(Nc4ccc(OCc5cccc(F)c5)c(Cl)c4)c3c2)o1 [Lapatinib] (partner 2 µM)
Summary of the method: as §1

Seliciclib + Linsitinib = compound: CC[C@H](CO)Nc1nc(NCc2ccccc2)c2ncn(C(C)C)c2n1 [Seliciclib] + C[C@]1(O)C[C@@H](c2nc(-c3ccc4ccc(-c5ccccc5)nc4c3)c3c(N)nccn32)C1 [Linsitinib] (partner 1 µM)
Summary of the method: as §1

Cell Line | relative viability (Seliciclib + Alpelisib; first compound 0.08 µM) | relative viability (Seliciclib + Alpelisib; first compound 0.253 µM) | relative viability (Seliciclib + Alpelisib; first compound 0.8 µM) | relative viability (Seliciclib + Alpelisib; first compound 2.53 µM) | relative viability (Seliciclib + Alpelisib; first compound 8 µM) | relative viability (Seliciclib + OSI-027; first compound 0.08 µM) | relative viability (Seliciclib + OSI-027; first compound 0.253 µM) | relative viability (Seliciclib + OSI-027; first compound 0.8 µM) | relative viability (Seliciclib + OSI-027; first compound 2.53 µM) | relative viability (Seliciclib + OSI-027; first compound 8 µM) | relative viability (Seliciclib + Lapatinib; first compound 0.08 µM) | relative viability (Seliciclib + Lapatinib; first compound 0.253 µM) | relative viability (Seliciclib + Lapatinib; first compound 0.8 µM) | relative viability (Seliciclib + Lapatinib; first compound 2.53 µM) | relative viability (Seliciclib + Lapatinib; first compound 8 µM) | relative viability (Seliciclib + Linsitinib; first compound 0.08 µM) | relative viability (Seliciclib + Linsitinib; first compound 0.253 µM) | relative viability (Seliciclib + Linsitinib; first compound 0.8 µM) | relative viability (Seliciclib + Linsitinib; first compound 2.53 µM) | relative viability (Seliciclib + Linsitinib; first compound 8 µM)
NCI-H1651 | 0.93 | 0.839 | 0.833 | 0.81 | 0.804 | 0.654 | 0.815 | 0.651 | 0.542 | 0.543 | 0.807 | 0.875 | 0.883 | 0.864 | 0.702 | 0.878 | 0.879 | 0.91 | 0.924 | 0.839
NCI-H1666 | 1.04 | 0.985 | 0.846 | 0.923 | 0.516 | 0.817 | 0.899 | 0.939 | 0.622 | 0.734 | 0.722 | 0.8 | 0.48 | 0.474 | 0.476 | 0.769 | 0.862 | 0.662 | 0.875 | 0.514
NCI-H1734 | 0.659 | 0.651 | 0.622 | 0.683 | 0.674 | 0.513 | 0.413 | 0.565 | 0.435 | 0.452 | 1.12 | 0.974 | 1.08 | 0.955 | 0.945 | 0.951 | 0.819 | 0.824 | 1.02 | 0.775
NCI-H1755 | 0.924 | 0.946 | 0.908 | 0.991 | 0.892 | 0.633 | 0.714 | 0.738 | 0.515 | 0.691 | 1.02 | 1.02 | 1.02 | 0.963 | 1.03 | 0.982 | 1.02 | 0.978 | 1.02 | 0.993
NCI-H1792 | 0.765 | 0.725 | 0.719 | 0.682 | 0.633 | 0.67 | 0.769 | 0.73 | – | 0.64 | 0.947 | 0.889 | 0.855 | 0.776 | 0.846 | 0.459 | 0.568 | 0.521 | 0.678 | 0.477
NCI-H1793 | 0.641 | 0.68 | 0.508 | 0.708 | 0.742 | 0.299 | 0.219 | 0.252 | 0.194 | 0.238 | 0.888 | 0.54 | 0.583 | 0.77 | 0.655 | 0.784 | 0.545 | 0.79 | 1.16 | 0.743
NCI-H1915 | 1.05 | 1.1 | 1.04 | 1.04 | 0.875 | 0.643 | 0.636 | 0.495 | 0.536 | 0.423 | 0.951 | 1.13 | 1.02 | 0.936 | 0.853 | 1.11 | 1.14 | 1.14 | 1.12 | 0.885
NCI-H1944 | 0.813 | 0.859 | 0.77 | 0.904 | 0.666 | 0.442 | 0.343 | 0.376 | 0.26 | 0.341 | 0.842 | 0.788 | 0.859 | 0.619 | 0.449 | 1.08 | 1.19 | 1.09 | 1.17 | 0.904
NCI-H1975 | 0.653 | 0.526 | 0.602 | 0.621 | 0.445 | 0.845 | 0.545 | 0.839 | 0.525 | 0.624 | 0.867 | 0.834 | 0.868 | 0.759 | 0.716 | 1.03 | 0.865 | 0.975 | 0.819 | 0.6
NCI-H1993 | 0.728 | 0.708 | 0.716 | 0.688 | 0.669 | 0.574 | 0.529 | 0.521 | 0.556 | 0.518 | 0.845 | 0.848 | 0.838 | 0.773 | 0.797 | 0.746 | 0.749 | 0.768 | 0.724 | 0.713
NCI-H2009 | 1.14 | 1.31 | 1.15 | 1.14 | 1.23 | 0.704 | 0.778 | 0.739 | 0.407 | 0.495 | 0.944 | 1.04 | 0.889 | 0.772 | 0.721 | 1.24 | 1.16 | 1.09 | 1.19 | 1.19
NCI-H2023 | 0.548 | 0.542 | 0.523 | 0.58 | 0.531 | 0.418 | 0.304 | 0.396 | 0.188 | 0.323 | 0.932 | 0.991 | 0.732 | 0.406 | 0.451 | 0.642 | 0.574 | 0.633 | 0.746 | 0.572
NCI-H2085 | 0.971 | 1.19 | 0.984 | 0.926 | 0.809 | 0.803 | 0.679 | 0.59 | 0.685 | 0.577 | 0.739 | 0.793 | 0.667 | 0.635 | 0.497 | 0.808 | 0.805 | 0.928 | 0.856 | 0.763
NCI-H2087 | 1.08 | 1.21 | 1.06 | 1.09 | 0.815 | 0.617 | 0.533 | 0.497 | 0.273 | 0.432 | 1.13 | 1.14 | 1.02 | 0.749 | 0.965 | 0.896 | 0.991 | 1 | 0.867 | 0.862
NCI-H2126 | 0.681 | 0.698 | 0.753 | 0.749 | 0.673 | 0.75 | 0.715 | 0.649 | 0.354 | 0.515 | 0.698 | 0.656 | 0.737 | 0.552 | 0.613 | 0.718 | 0.711 | 0.698 | 0.721 | 0.716
NCI-H2228 | 0.639 | 0.69 | 0.936 | 0.658 | 0.63 | 0.594 | 0.437 | 0.617 | 0.473 | 0.404 | 1.07 | 1.35 | 1.02 | 1.2 | 0.847 | 0.848 | 0.491 | 0.612 | 0.564 | 0.57
NCI-H2347 | 1.05 | 1.04 | 0.757 | 1.03 | 0.805 | 0.431 | 0.475 | 0.452 | 0.339 | 0.343 | 0.867 | 0.858 | 0.835 | 0.974 | 0.905 | 1.05 | 0.995 | 0.849 | 1 | 0.922
NCI-H2405 | 0.718 | 0.698 | 0.642 | 0.689 | 0.729 | 0.616 | 0.669 | 0.689 | 0.291 | 0.555 | 1.11 | 0.851 | 1.05 | 0.919 | 0.902 | 0.978 | 0.962 | 0.863 | 0.941 | 0.793
NCI-H3122 | 0.762 | 0.763 | 0.753 | 0.765 | 0.777 | 0.979 | 0.53 | 0.769 | 0.744 | 0.778 | 0.938 | 1.08 | 0.91 | 1.04 | 0.949 | 0.966 | 1.03 | 0.987 | 1.05 | 0.94
PC-3 [JPC-3] | 1.02 | 1.07 | 0.968 | 0.997 | 0.904 | 0.727 | 0.761 | 0.716 | 0.65 | 0.672 | 0.455 | 0.52 | 0.418 | 0.421 | 0.445 | 0.954 | 0.994 | 1 | 0.915 | 0.893
PC-14 | 0.86 | 0.871 | 0.878 | 0.909 | 0.854 | 0.844 | 0.736 | 0.749 | 0.494 | 0.709 | 0.306 | 0.262 | 0.315 | 0.309 | 0.263 | 0.922 | 0.921 | 0.936 | 0.994 | 0.845
RERF-LC-KJ | 0.745 | 0.761 | 0.814 | 0.973 | 0.792 | 0.58 | 0.582 | 0.555 | 0.407 | 0.508 | 0.852 | 0.783 | 0.913 | 0.928 | 0.788 | 0.869 | 0.814 | 0.855 | 0.909 | 0.883
SK-LU-1 | 1 | 1.05 | 1.04 | 0.795 | 0.636 | 0.38 | 0.378 | 0.433 | 0.239 | 0.233 | 0.847 | 0.971 | 0.812 | 0.775 | 0.666 | 0.973 | 0.868 | 1.32 | 1.09 | 0.687
SK-MES-1 | 0.811 | 0.85 | 0.846 | 0.873 | 0.948 | 0.63 | 0.655 | 0.593 | 0.462 | 0.45 | 0.476 | 0.397 | 0.404 | 0.489 | 0.446 | 1.02 | 0.995 | 1.04 | 1.05 | 0.981
SW 1573 | 0.653 | 0.805 | 0.786 | 0.712 | 0.567 | 0.606 | 0.491 | 0.728 | 0.598 | 0.466 | 1.09 | 1.06 | 1.02 | 1.1 | 0.869 | 0.768 | 0.792 | 0.904 | 0.743 | 0.668
UMC-11 | 0.856 | 0.896 | 0.995 | 1.24 | 0.823 | 0.537 | 0.503 | 0.48 | 0.153 | 0.422 | 1.02 | 0.981 | 1.09 | 0.96 | 0.824 | 1.02 | 0.872 | 1.01 | 1.04 | 0.851
